# Earlier results in patent US6511813B1, “Elongation factor P (EFP) and assays and antimicrobial treatments related to the same” (Pharmacia & Upjohn Company, priority 1999, dated 2003).
# Tests used:
# peptidyltransferase [1] = system: peptidyltransferase
# [2] = system: fMet-tRNAfMet/ribosome translation complex
# peptidyltransferase [3] = system: peptidyltransferase; remark: listed apart in the source
Molecule,effect on efp reaction (efp),effect on formation of the fMet-tRNAfMet/ribosome translation complex [2],effect on the peptide-bond synthesis which occurs in the absence of efp (peptidyltransferase [3]),other results
CCC[C@@H]1C[C@@H](C(=O)N[C@@H]([C@H]2O[C@H](SC)[C@H](O)[C@@H](O)[C@H]2O)[C@@H](C)O)N(C)C1 [Lincomycin],nullifies the ability of efp to stimulate synthesis of peptide bonds,,,effect on the synthesis of polyphenylalanine (ribosome): marginal effects; effect on the puromycin reaction (peptidyltransferase [1]): inhibits
[H]/N=C(/N)N[C@H]1[C@H](O)[C@@H](O)[C@H](O[C@@H]2O[C@@H](C)[C@](O)(C=O)[C@H]2O[C@@H]2O[C@@H](CO)[C@H](O)[C@@H](O)[C@@H]2NC)[C@@H](N/C(N)=N\[H])[C@@H]1O [Streptomycin],,,,inhibition of the efp-mediated reaction (efp; at 2×10^−5 M): potent inhibitor
CC[C@H]1OC(=O)[C@H](C)[C@@H](O[C@H]2C[C@@](C)(OC)[C@@H](O)[C@H](C)O2)[C@H](C)[C@@H](O[C@@H]2O[C@H](C)C[C@H](N(C)C)[C@H]2O)[C@](C)(O)C[C@@H](C)C(=O)[C@H](C)[C@@H](O)[C@]1(C)O [Erythromycin],,,,effect on the efp reaction (efp; at 5×10^−5): no apparent effect
neomycin,inhibit only about 20% or have no effect,no effect,no effect,
C=C(NC(=O)C(=C)NC(=O)c1csc(C2=N[C@@H]3c4csc(n4)[C@H]4NC(=O)c5csc(n5)[C@H]([C@](C)(O)[C@@H](C)O)NC(=O)[C@H]5CSC(=N5)/C(=C/C)NC(=O)[C@H]([C@@H](C)O)NC(=O)c5csc(n5)[C@]3(CC2)NC(=O)[C@H](C)NC(=O)C(=C)NC(=O)[C@H](C)NC(=O)[C@H]([C@@H](C)CC)N[C@@H]2C=Cc3c([C@H](C)O)cc(nc3[C@H]2O)C(=O)O[C@@H]4C)n1)C(N)=O [thiostrepton],inhibit only about 20% or have no effect,no effect,no effect,
